# Source: PMC7310027, “PET imaging of soluble epoxide hydrolase in non-human primate brain with [^18F]FNDP” (EJNMMI Research, 2020)
# How the values were obtained:
# [1] = system: soluble epoxide hydrolase (sEH); experiment: Baboon [^18F]FNDP PET, dose-escalation blocking with AR-9281 (Lassen plot, occupancy); format: in vivo, baboon (Papio anubis)
# Description: PET images were acquired using a CPS/CTI high-resolution research tomograph (HRRT), which has an axial resolution (FWHM) of 2.4 mm and in-plane resolution of 2.4–2.8 mm. […] These blocking studies were performed 27 to 43 days apart from each other to ensure full animal recovery. The animals had no food for 12 h prior to each PET study. Anesthesia was induced with intramuscular ketamine (7.5–10 mg/kg) and maintained with a continuous intravenous infusion of propofol at 0.3–0.4 mg/kg/min throughout the PET experiment. One venous catheter was inserted for the radioligand injection, and one arterial catheter was inserted to obtain arterial blood samples. Baboons were intubated to facilitate respiration, and circulatory volume was maintained by constant infusion of isotonic saline. Physiological vital signs including heart rate, blood pressure, electrocardiogram, and oxygen saturation were monitored continuously throughout the study.
# The animals were positioned in the PET scanner with the head immobilized using a thermoplastic mask. […] The 90-min dynamic PET acquisition was then started in three-dimensional list mode simultaneously with an intravenous bolus injection of [^18F]FNDP. […]
# Next, kinetic modeling was performed based on the TACs and the metabolite-corrected arterial plasma input functions. For brain uptake, the primary outcome measure was the regional brain distribution volume (VT) of [^18F]FNDP, defined as concentration of the radiotracer in regional tissue relative to that in blood at equilibrium. We evaluated which compartmental models (e.g., two-tissue-three-compartment (2TCM) or one-tissue-two-compartment (1TCM)) best described the [^18F]FNDP PET data, using statistical model selection criteria, such as the Akaike information criterion. For comparison, the Logan graphical method (t* = 30 min) was also used to compute regional VT, as well as generating voxel-wise parametric images of VT [31].
# For blocking studies, occupancy of sEH by FNDP was calculated using regional VT values as Eq 1 Occupancy=ΔVT/VTBaseline−VND,
# where VND, the distribution volume of non-displaceable radioligand, was obtained from the Lassen plot, i.e., using a scatterplot of ΔVT (i.e., baseline VT minus post-blocking VT) versus baseline VT of all regions. […] When that condition was satisfied, VND was given as the intercept of the regression line with the X-axis. The non-displaceable binding potential (BPND) was computed as VT /VND − 1.
# [2] = Baboon plasma radiometabolite analysis by HPLC; format: in vivo, baboon (Papio anubis)
# Description: Measurement of the arterial plasma input function was conducted through collection of ~ 40 blood samples over the course of the 90-min dynamic PET study. […] Samples were then centrifuged at 1200 × g, and the plasma radioactivity was measured with a cross-calibrated PerkinElmer Wizard 2480 automatic gamma counter.
# Select plasma samples (0, 5, 10, 20, 30, 60, and 90 min) were analyzed for radiometabolites using high-performance liquid chromatography (HPLC). The modified column-switching HPLC method was used. The HPLC system consisting of a 1260 infinity quaternary pump, a 1260 infinity column compartment module, a 1260 infinity UV detector, and a Raytest GABI Star radiation detector, was operated with OpenLab CDS EZChrom (A.01.04) software. […] After 1 min of isocratic elution, analytical mobile phase composed of 65% acetonitrile and 35% water with 0.06 M trimethylamine (at pH = 7.2, adjusted with phosphoric acid) was applied to direct non-polar compounds trapped on the capture column to an analytical column (Gemini C18(2), 10 μm, 4.6 × 250 mm) and detectors at 2 mL/min. The HPLC system was standardized for mass using non-radioactive FNDP prior to analysis of the blood plasma samples, which were spiked with 5 μL of non-radioactive FNDP at a concentration of 1 mg/mL.
# [3] = Murine radiometabolite analysis (blood and brain) by RP-HPLC; format: in vivo, CD-1 mice
# Description: Male CD-1 mice (25–26 g) were injected via the lateral tail vein with 37 MBq of high specific activity (1.1 TBq/μmol or 29.7 Ci/μmol) [^18F]FNDP. The mice were sacrificed by cervical dislocation at 10 and 30 min after injection, and a terminal blood sample was obtained. The mouse brains were rapidly removed, homogenized in 2 mL of ACN:H2O 50%–50% (vol) with 0.06 M ammonium formate to extract parent tracer and radiometabolites, centrifuged at 20,000 g at 4 °C. Resulting supernatants were analyzed by reverse-phase (RP)-HPLC.
# [4] = parameters: method as in PMID 27417650; details: baboon brain; cited from earlier work
# [5] = system: sEH; parameters: method as in PMID 27417650; details: self-blockade experiments; cited from earlier work
structure (smiles),measurement,setting,value
"O=C(NCCC(c1ccccc1)c1ccccc1)c1ccc([18F])nc1 [[^18F]FNDP, N-(3,3-diphenylpropyl)-6-^18F-fluoronicotinamide]",K1 (2TCM),"[1]; 0.02-mg/kg AR-9281 blocking scan, Baboon3",0.170 ± 0.021 mL/cm^3/min
same,K1 (2TCM),"[1]; 0.1-mg/kg AR-9281 blocking scan, Baboon3",0.179 ± 0.026 mL/cm^3/min
same,K1 (2TCM),"[1]; 1-mg/kg AR-9281 blocking scan, Baboon3",0.166 ± 0.032 mL/cm^3/min
same,VND (distribution volume of non-displaceable radioligand),"[1]; Lassen plot, AR-9281 blocking scans, Baboon3",0.865 ± 0.066 mL/mL
same,specific binding (binding specificity),[1]; baboon brain,91.70 ± 1.74%
same,total distribution volume (VT),"[1]; male, baboon (Papio anubis), brain, intravenous, read-out: high-dose blocking VT",1 ± 0.09
same,"fraction of radioactivity by HPLC (Met-1, Met-2, parent)",[2]; Baboon blood (10 min),77.0 ± 3.6%
same,"fraction of radioactivity by HPLC (Met-1, Met-2, parent)",[2]; Baboon blood (30 min),46.5 ± 6.4%
same,"fraction of radioactivity by HPLC (Met-1, Met-2, parent)",[2]; Baboon blood (60 min),28.3 ± 9.3%
same,"fraction of radioactivity by HPLC (Met-1, Met-2, parent)",[2]; Baboon blood (90 min),21.8 ± 7.0%
same,suggested fraction of brain radioactivity that is parent,"[2]; baboon brain, extrapolated",> 95%
same,"fraction of radioactivity by HPLC (Met-1, Met-2, parent)",[3]; Mouse blood (10 min),63.4 ± 4.4%
same,"fraction of radioactivity by HPLC (Met-1, Met-2, parent)",[3]; Mouse blood (30 min),50.1 ± 10.5%
same,"fraction of radioactivity by HPLC (Met-1, Met-2, parent)",[3]; Mouse brain (10 min),99.2 ± 0.3%
same,"fraction of radioactivity by HPLC (Met-1, Met-2, parent)",[3]; Mouse brain (30 min),98.3 ± 0.3%
same,"brain uptake, standardized uptake value (SUV)",[4],4
same,binding specificity for sEH,[5],~ 95%
